Here are results for two compounds from patent US20030199671A1, “Binding molecules for Fc-region polypeptides” (priority 2001, published 2003).

Positions of bridges follow the written chain, without caps; N, C: chain ends. Residues, ends and D or L forms follow the SMILES beside them.

One may read the Kd as the equilibrium constant for the complex coming apart.

For one assay, the target named is T1, human plasma IgG4 (Homo sapiens, UniProt P01861).
T1 construct: the individual human plasma IgG isoforms: IgG1, IgG2, IgG3, or IgG4; purchased Calbiochem; host or cells: human plasma
Briefly: Fluorescence anisotropy binding, fluorescein-labeled peptide. The procedure:
(§1) Peptides were synthesized by BACHEM Bioscience, Inc., (King of Prussia, Pa.), fluorescein labeled and purified by HPLC. Binding studies were performed using either a mixture of human plasma IgG isoforms (the Fc target) or the individual human plasma IgG isoforms: IgG1, IgG2, IgG3, or IgG4. All Fc target proteins were obtained from Calbiochem.
(§2) All measurements were performed in 384 well microplates with 20 nM fluorescein-labeled peptide and various concentrations of the IgG isoform in a volume of between 10 and 20 μl using a Tecan Polarion fluorescence polarization plate reader. All binding buffers included 0.01% (v/v) Tween 20 to prevent peptide adsorption to the microplate. The binding mixture was equilibrated for 10 minutes in the microplate at 30° C. prior to performing the measurement.
(§3) Peptides were synthesized, fluorescein-labeled and HPLC purified as described above. Binding studies were performed using either a mixture of human plasma IgG isoforms (the Fc protein) or the individual human plasma IgG isoforms: IgG1, IgG2, IgG3, or IgG4.
(§4) Measurements were performed in 384-well microplates with 2 nM fluorescein-labeled peptide and a varied concentration of the IgG isoform target in a volume of 10 μl using a Tecan Polarion fluorescence polarization plate reader. The Fc binding buffer was 50 mM Tris-HCl, 200 mM NaCl, pH 8.0, 0.01% Tween 20. The IgG binding buffer was PBS with 0.01% Tween 20. The binding mixtures were equilibrated for 10 minutes in the microplate at 30° C. prior to performing the measurements.
Background: In fluorescence polarisation assays a small probe gives low polarisation when free and higher when bound to something large.

The target of assay [1] is Fc (mixture of human plasma IgG isoforms). The assay is described as above. As to conditions: pH 8.0, 0.05 M Tris-HCl, 0.2 M NaCl. On the procedure: as §1, §2, §3, §4
The target in a further assay is T2, human plasma IgG3 (Homo sapiens, UniProt P01860).
T2 construct: the individual human plasma IgG isoforms: IgG1, IgG2, IgG3, or IgG4; purchased Calbiochem; host or cells: human plasma
The description is as above. The procedure:
as §1, §2, §3, §4

The subject of assay [2] is human IgG. Briefly: Dynamic (mini-column) binding capacity. On the procedure: These media were used to determine the effect of ligand density on human IgG binding capacity in both static (filterplate) and dynamic (mini-column) modes with commercial immobilized recombinant Protein A (Repligen, IPA400) at a single density as control.
The IgG solution was loaded onto the column at a flow rate of 0.2 ml/minute (170 cm/hr). […] At the end of the loading period, the column was washed with PBS until the absorbance at 280 nm of the column eluant returned to baseline. […] Neutralizing the pH of the eluted fractions was unnecessary since the total IgG eluted was determined by total protein absorbance at 280 nm.
To establish total media capacities, IgG was loaded onto the columns until the absorbances of the column load and flow through streams were identical (loading to full capacity). After washing the column to baseline, bound IgG was eluted and the total amount captured from this elution fraction determined. The total capacity of the media (mg IgG/ml media) as total IgG captured divided by the column bed volume was calculated.
Additionally, column capacities at 10% breakthrough were calculated from the online A280 measurements of column flowthrough streams. The A280 curves obtained for the column of interest and for an equivalent “blank” column containing hydrolyzed Sepharose FF 4 media were aligned. The difference in areas between these curves (for a retained and non-retained target) from the time of injection to the time at which the A280 value for the column of interest had risen to 10% of the maximum A280 absorbance (100%) obtained for the load solution at 100% IgG capture saturation (10% breakthrough) was graphically integrated. A standard curve was used to relate the integrated area to mg IgG bound and capacity calculated as total IgG bound divided by column bed volume.

Assay [3] has as its system human IgG. Briefly: Static (filterplate) binding capacity.
Where [4] appears, read: pH 9.3, 0.01 M sodium bicarbonate.

T2 sequence (P01860 1-377 isoform P01860-1): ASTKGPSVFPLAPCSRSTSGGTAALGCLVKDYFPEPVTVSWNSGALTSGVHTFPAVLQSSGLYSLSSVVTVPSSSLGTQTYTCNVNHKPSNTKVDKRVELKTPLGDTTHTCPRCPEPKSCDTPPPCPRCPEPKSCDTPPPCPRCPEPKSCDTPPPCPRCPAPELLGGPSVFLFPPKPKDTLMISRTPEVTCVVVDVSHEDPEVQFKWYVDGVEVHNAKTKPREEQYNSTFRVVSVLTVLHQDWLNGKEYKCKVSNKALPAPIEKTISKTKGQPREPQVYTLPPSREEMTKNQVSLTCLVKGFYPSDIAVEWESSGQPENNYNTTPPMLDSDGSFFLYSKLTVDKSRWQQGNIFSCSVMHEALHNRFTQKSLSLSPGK
T1 sequence (P01861 1-327 isoform P01861-1): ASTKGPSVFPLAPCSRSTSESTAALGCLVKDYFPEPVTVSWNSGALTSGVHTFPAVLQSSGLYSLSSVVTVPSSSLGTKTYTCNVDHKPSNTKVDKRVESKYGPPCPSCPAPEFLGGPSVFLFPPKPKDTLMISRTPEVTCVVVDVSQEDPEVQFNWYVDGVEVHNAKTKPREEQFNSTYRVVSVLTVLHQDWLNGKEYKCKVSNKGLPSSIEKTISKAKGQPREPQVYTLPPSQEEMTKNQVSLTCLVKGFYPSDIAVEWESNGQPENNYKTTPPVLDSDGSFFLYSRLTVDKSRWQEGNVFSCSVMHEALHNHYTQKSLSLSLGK

Regarding `CC(=O)NCC(=O)N[C@@H](CC(=O)O)C(=O)N[C@@H](CC(=O)O)C(=O)N[C@@H](CC(=O)O)C(=O)N[C@@H](Cc1c[nH]cn1)C(=O)N[C@H]1CSSC[C@@H](C(=O)N2CCC[C@H]2C(=O)N[C@@H](Cc2c[nH]cn2)C(=O)NCC(=O)N[C@@H](CCC(=O)O)C(=O)N2CCC[C@H]2C(=O)NCC(=O)N2CCC[C@H]2C(=O)N[C@@H](CCC(=O)O)C(=O)NCC(=O)NCC(=O)NCC(=O)N[C@@H](CCCCN)C(N)=O)NC(=O)[C@H](CCC(=O)O)NC(=O)[C@H](CO)NC(=O)[C@H](CC(N)=O)NC(=O)[C@H](Cc2ccccc2)NC(=O)[C@H](Cc2c[nH]c3ccccc23)NC(=O)[C@H](CCC(=O)O)NC(=O)[C@H](CCCNC(=N)N)NC(=O)[C@H](Cc2ccccc2)NC(=O)[C@H](Cc2c[nH]c3ccccc23)NC(=O)[C@H](Cc2ccc(O)cc2)NC1=O` [DX252] (Ac-GDDDHCYWFREWFNSECPHGEPGPEGGGK-NH2; disulfide 6-17 (inferred)), the Kd on human plasma IgG4 (pH 5.7, 0.01 M Tris-acetate) is greater than 10 µM; at human plasma IgG4 (pH 7.4, 0.01 M Tris-HCl), 2.1 to 3.4 µM; on human plasma IgG4 (pH 7.4, PBS, […] NaCl), greater than 10 µM; at human plasma IgG4 (setting [4]), greater than 10 µM; in assay [1] it was 5.1 ± 3 µM; on human plasma IgG3 (pH 5.7, 0.01 M Tris-acetate) it was less than 0.1 µM. The Kd at human plasma IgG3 (pH 7.4, 0.01 M Tris-HCl) was 2.1 to 3.4 µM; on human plasma IgG3 (setting [4]), greater than 10 µM.
Take `CC[C@H](C)[C@@H]1NC(=O)[C@H](CC(C)C)NC(=O)[C@H](CCC(=O)O)NC(=O)CNC(=O)[C@H](Cc2c[nH]c3ccccc23)NC(=O)[C@H]([C@@H](C)O)NC(=O)[C@H]([C@@H](C)O)NC(=O)[C@H](Cc2ccc(O)cc2)NC(=O)[C@H](C(C)C)NC(=O)[C@@H](NC(=O)[C@H](CCSC)NC(=O)[C@H](Cc2c[nH]cn2)NC(=O)[C@H](CC(=O)O)NC(=O)[C@H](CC(=O)O)NC(=O)CNC(C)=O)CSSC[C@@H](C(=O)N[C@@H](CC(=O)O)C(=O)N[C@@H](CC(N)=O)C(=O)N[C@@H](Cc2c[nH]cn2)C(=O)N[C@@H](CCC(=O)O)C(=O)N2CCC[C@H]2C(=O)NCC(=O)N2CCC[C@H]2C(=O)N[C@@H](CCC(=O)O)C(=O)NCC(=O)NCC(=O)NCC(=O)N[C@@H](CCCCN)C(N)=O)NC(=O)[C@H](Cc2c[nH]c3ccccc23)NC1=O` [DX249] (Ac-GDDHMCVYTTWGELIWCDNHEPGPEGGGK-NH2; disulfide 6-17): the “Capacity (mg IgG/mL resin) 10% Breakthrough” value worked out at 1.1 mg IgG/mL resin in the assay on human IgG [2] (Ligand Density 0.19 μM/mL), 4.4 mg IgG/mL resin in the assay on human IgG [2] (Ligand Density 0.86 μM/mL), 5.9 mg IgG/mL resin in the assay on human IgG [2] (Ligand Density 1.63 μM/mL) and 5.5 mg IgG/mL resin with human IgG [2] (Ligand Density 3.20 μM/mL). Moreover, the “Capacity (mg IgG/mL resin) Total Dynamic” value in the assay with human IgG [2] (Ligand Density 0.19 μM/mL) amounted to 1.2 mg IgG/mL resin; with human IgG [2] (Ligand Density 0.86 μM/mL), 8.4 mg IgG/mL resin; in the assay on human IgG [2] (Ligand Density 1.63 μM/mL), 10.3 mg IgG/mL resin; in the assay with human IgG [2] (Ligand Density 3.20 μM/mL), 16.4 mg IgG/mL resin. In addition, the “Dynamic Cap.” value in the assay with human IgG [2] (Table 18, total dynamic capacity, average ligand density 1.9 μmole/ml) amounted to 13 mg/mL. In addition, the “Capacity (mg IgG/mL resin) Static” value with human IgG [3] (Ligand Density 0.19 μM/mL) was found to be 1.2 mg IgG/mL resin; in the assay with human IgG [3] (Ligand Density 0.86 μM/mL), 9.5 mg IgG/mL resin; in the assay on human IgG [3] (Ligand Density 1.63 μM/mL) it was 15.4 mg IgG/mL resin; with human IgG [3] (Ligand Density 3.20 μM/mL) it was 19.0 mg IgG/mL resin. In the assay on human IgG [3] (Table 18, 25 mg human IgG applied per ml resin, average ligand density 1.9 μmole/ml), the “Static Cap.” value was determined as 24 mg/mL. The Kd on human plasma IgG4 (pH 7.4, 0.01 M Tris-HCl) was 1.9 ± 0.4 µM; at human plasma IgG4 (pH 7.4, PBS, […] NaCl), 1.9 ± 1.2 µM; at human plasma IgG4 (setting [4]) it was greater than 10 µM; in assay [1], 2.5 ± 0.5 µM; on human plasma IgG3 (pH 5.7, 0.01 M Tris-acetate) it was greater than 10 µM; on human plasma IgG3 (pH 7.4, 0.01 M Tris-HCl), greater than 10 µM. Also, the Kd is greater than 10 µM at human plasma IgG3 (pH 7.4, PBS, […] NaCl) and greater than 10 µM on human plasma IgG3 (setting [4]).
